Changes are numbered by the printed parent chain. Non-standard residues stand in square brackets, D forms with d. No end group written: not given here. pY = N[C@@H](Cc1ccc(OP(=O)(O)O)cc1)C(=O)O; FAM = 5,6-carboxyfluorescein
Legend:
Rtt103p CID = target: T1, Rtt103p CID (Saccharomyces cerevisiae, UniProt Q05543); experiment: Equilibrium binding by fluorescence anisotropy (FA), wild-type Rtt103p CID; parameters: species or system yeast
T1 construct: Rtt103p CID (3‐131–6xHIS) was expressed and purified as previously described; 6xHis (C); made in house; host or cells: E. coli BL21-Codon Plus (DE3)-RIPL
T1 sequence (Q05543 3-131): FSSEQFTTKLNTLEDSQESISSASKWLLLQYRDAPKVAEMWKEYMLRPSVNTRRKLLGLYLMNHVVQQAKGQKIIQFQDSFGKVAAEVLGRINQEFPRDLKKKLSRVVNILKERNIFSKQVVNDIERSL

Rtt103p CID Q19A = target: T2, Rtt103p CID Q19A (Saccharomyces cerevisiae, UniProt Q05543, Q19A); experiment: Equilibrium binding by fluorescence anisotropy (FA), Rtt103p CID Q19A mutant; parameters: species or system yeast; details: Rtt103p CID Q19A mutant titrated into 10 nM FAM‐labelled CTD peptide, 10°C, pH 6.8, ± standard deviation of the fit
T2 construct: Rtt103p CID (3‐131–6xHIS) was expressed and purified as previously described; 6xHis (C); made in house; host or cells: E. coli BL21-Codon Plus (DE3)-RIPL
T2 sequence (Q05543 3-131 Q19A): T1 sequence (Q05543 3-131) with Q17A
Experimental: The equilibrium binding of Rtt103p CID constructs to differently phosphorylated CTD was analysed by fluorescence anisotropy. The CTD peptides were N‐terminally labelled with the 5,6‐carboxyfluorescein (FAM). The measurements were conducted on a FluoroLog‐3 spectrofluorometer (Horiba Jobin‐Yvon Edison, NJ). The instrument was equipped with a thermostatted cell holder with a Neslab RTE7 water bath (Thermo Scientific). Samples were excited with vertically polarized light at 467 nm, and both vertical and horizontal emissions were recorded at 516 nm. All measurements were conducted at 10°C in 35 mM KH2PO4, 100 mM KCl (pH 6.8). Each data point is an average of three measurements. The experimental binding isotherms were analysed by DynaFit using 1:1 model with non‐specific binding 39.

Molecule	Kd (Rtt103p CID)	Kd (Rtt103p CID Q19A)	binding with Rtt103p (in words) (Rtt103p CID; fluorescence anisotropy, 10 nM FAM‐labelled CTD peptide, 10°C, pH 6.8)
C[C@@H](OP(=O)(O)O)[C@H](NC(=O)[C@@H]1CCCN1C(=O)[C@H](CO)NC(=O)[C@H](Cc1ccc(O)cc1)NC(=O)[C@H](CO)NC(=O)[C@@H]1CCCN1C(=O)[C@H](CO)NC(=O)[C@@H](NC(=O)[C@@H]1CCCN1C(=O)[C@H](CO)NC(=O)[C@H](Cc1ccc(O)cc1)NC(=O)[C@H](CO)NC(=O)[C@@H]1CCCN1C(=O)c1ccc2c(c1)C(=O)OC21c2ccc(O)cc2Oc2cc(O)ccc21)[C@@H](C)OP(=O)(O)O)C(=O)N[C@@H](CO)C(=O)N1CCC[C@H]1C(=O)N[C@@H](CO)C(=O)O [Doubly phosphorylated pThr4‐CTD]	6 ± 0.2 µM		
C[C@@H](O)[C@H](NC(=O)[C@@H]1CCCN1C(=O)[C@H](CO)NC(=O)[C@H](Cc1ccc(O)cc1)NC(=O)[C@H](CO)NC(=O)[C@@H]1CCCN1C(=O)[C@H](CO)NC(=O)[C@@H](NC(=O)[C@@H]1CCCN1C(=O)[C@H](CO)NC(=O)[C@H](Cc1ccc(O)cc1)NC(=O)[C@H](CO)NC(=O)[C@@H]1CCCN1C(=O)c1ccc2c(c1)C(=O)OC21c2ccc(O)cc2Oc2cc(O)ccc21)[C@@H](C)OP(=O)(O)O)C(=O)N[C@@H](CO)C(=O)N1CCC[C@H]1C(=O)N[C@@H](CO)C(=O)O [pThr4‐CTD]	15 ± 1 µM	48 ± 5 µM	
PS pYSPTSPS YSPTSPS: FAM‐labelled CTD peptide with the pTyr1 mark in the central heptad ({FAM}-PS[pY]SPTSPSYSPTSPS)			completely abolished the binding
C[C@@H](O)[C@H](NC(=O)[C@@H]1CCCN1C(=O)[C@H](CO)NC(=O)[C@H](Cc1ccc(O)cc1)NC(=O)[C@H](CO)NC(=O)[C@@H]1CCCN1C(=O)[C@H](CO)NC(=O)[C@@H](NC(=O)[C@@H]1CCCN1C(=O)[C@H](COP(=O)(O)O)NC(=O)[C@H](Cc1ccc(O)cc1)NC(=O)[C@H](CO)NC(=O)[C@@H]1CCCN1C(=O)c1ccc2c(c1)C(=O)OC21c2ccc(O)cc2Oc2cc(O)ccc21)[C@@H](C)O)C(=O)N[C@@H](CO)C(=O)N1CCC[C@H]1C(=O)N[C@@H](CO)C(=O)O [pSer2‐CTD]	6 ± 0.2 µM		
C[C@@H](O)[C@H](NC(=O)[C@@H]1CCCN1C(=O)[C@H](CO)NC(=O)[C@H](Cc1ccc(O)cc1)NC(=O)[C@H](CO)NC(=O)[C@@H]1CCCN1C(=O)[C@H](CO)NC(=O)[C@@H](NC(=O)[C@@H]1CCCN1C(=O)[C@H](COP(=O)(O)O)NC(=O)[C@H](Cc1ccc(O)cc1)NC(=O)[C@H](CO)NC(=O)[C@@H]1CCCN1C(=O)c1ccc2c(c1)C(=O)OC21c2ccc(O)cc2Oc2cc(O)ccc21)[C@@H](C)OP(=O)(O)O)C(=O)N[C@@H](CO)C(=O)N1CCC[C@H]1C(=O)N[C@@H](CO)C(=O)O [PS YpSPpTSPS YSPTSPS]	43 ± 2 µM		
